From the supplement of paper PMC10307832

Legend:
Assay in all cases: relative viability (nuclei count vs DMSO), 5 days (fraction); higher = more cells survive
Bexarotene + Trametinib = compound: C=C(c1ccc(C(=O)O)cc1)c1cc2c(cc1C)C(C)(C)CCC2(C)C [Bexarotene] + CC(=O)Nc1cccc(-n2c(=O)n(C3CC3)c(=O)c3c(Nc4ccc(I)cc4F)n(C)c(=O)c(C)c32)c1 [Trametinib] (partner 0.02 µM)
Outline: (§1)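 A single step with final 0.05% Triton X-100, 1% formaldehyde and 1 ug/ml Hoechst fixed the cells and stained nuclei 5 days after treatment. Lung cancer cell lines in 1536-well plates had been treated by pin tool the day after seeding with one drug alone or a fixed anchor-drug dose plus five library-drug doses (not always all listed) in √10 steps, and nuclei were counted on 4× images. Relative viability is the ratio of nuclei in treated wells to nuclei in vehicle wells, taken as the median of duplicate plates.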

Bexarotene + OSI-027 = compound: C=C(c1ccc(C(=O)O)cc1)c1cc2c(cc1C)C(C)(C)CCC2(C)C [Bexarotene] + COc1cccc2cc(-c3nc([C@H]4CC[C@H](C(=O)O)CC4)n4ncnc(N)c34)[nH]c12 [OSI-027] (partner 0.5 µM)
Outline: as §1

Bexarotene + Lapatinib = compound: C=C(c1ccc(C(=O)O)cc1)c1cc2c(cc1C)C(C)(C)CCC2(C)C [Bexarotene] + CS(=O)(=O)CCNCc1ccc(-c2ccc3ncnc(Nc4ccc(OCc5cccc(F)c5)c(Cl)c4)c3c2)o1 [Lapatinib] (partner 2 µM)
Outline: as §1

Bexarotene + Linsitinib = compound: C=C(c1ccc(C(=O)O)cc1)c1cc2c(cc1C)C(C)(C)CCC2(C)C [Bexarotene] + C[C@]1(O)C[C@@H](c2nc(-c3ccc4ccc(-c5ccccc5)nc4c3)c3c(N)nccn32)C1 [Linsitinib] (partner 1 µM)
Outline: as §1

Row | Cell Line | relative viability (Bexarotene + Trametinib; first compound 0.08 µM) | relative viability (Bexarotene + Trametinib; first compound 0.253 µM) | relative viability (Bexarotene + Trametinib; first compound 0.8 µM) | relative viability (Bexarotene + Trametinib; first compound 2.53 µM) | relative viability (Bexarotene + Trametinib; first compound 8 µM) | relative viability (Bexarotene + OSI-027; first compound 0.08 µM) | relative viability (Bexarotene + OSI-027; first compound 0.253 µM) | relative viability (Bexarotene + OSI-027; first compound 0.8 µM) | relative viability (Bexarotene + OSI-027; first compound 2.53 µM) | relative viability (Bexarotene + OSI-027; first compound 8 µM) | relative viability (Bexarotene + Lapatinib; first compound 0.08 µM) | relative viability (Bexarotene + Lapatinib; first compound 0.253 µM) | relative viability (Bexarotene + Lapatinib; first compound 0.8 µM) | relative viability (Bexarotene + Lapatinib; first compound 2.53 µM) | relative viability (Bexarotene + Lapatinib; first compound 8 µM) | relative viability (Bexarotene + Linsitinib; first compound 0.08 µM) | relative viability (Bexarotene + Linsitinib; first compound 0.253 µM) | relative viability (Bexarotene + Linsitinib; first compound 0.8 µM) | relative viability (Bexarotene + Linsitinib; first compound 2.53 µM) | relative viability (Bexarotene + Linsitinib; first compound 8 µM)
1 | 201T | 0.751 | 0.724 | 0.713 | 0.704 | 0.643 | 0.852 | 0.445 | 0.757 | 0.639 | 0.474 | 1.01 | 0.945 | 1.03 | 1.02 | 0.997 | 0.952 | 1.02 | 0.874 | 0.951 | 0.843
2 | A549 |  |  |  |  |  |  |  |  |  |  | 0.94 | 1.09 | 0.972 | 0.925 | 0.798 | 0.543 | 0.539 | 0.586 | 0.579 | 0.451
3 | A-427 | 0.726 | 0.643 | 0.629 | 0.517 | 0.599 | 0.448 | 0.462 | 0.455 | 0.449 | 0.415 | 1.03 | 0.997 | 0.929 | 0.997 | 1.04 | 1.03 | 0.833 | 1.04 | 1.05 | 0.993
4 | ABC-1 |  |  |  |  |  | 0.466 | 0.582 | 0.565 | 0.362 | 0.449 | 0.914 | 1.38 | 1.14 | 1.16 | 1.09 | 0.74 | 0.77 | 0.741 | 0.683 | 0.654
5 | BEN | 0.994 | 1.02 | 0.943 | 0.804 | 0.997 | 0.294 | 0.309 | 0.292 | 0.266 | 0.254 | 0.869 | 0.51 | 0.623 | 0.513 | 0.66 | 1.04 | 0.883 | 0.847 | 0.76 | 0.742
6 | CAL-12T | 0.349 | 0.286 | 0.319 | 0.233 | 0.319 | 0.523 | 0.416 | 0.49 | 0.439 | 0.441 | 0.632 |  | 0.638 |  | 0.543 | 0.682 | 0.894 | 0.727 | 0.707 | 0.656
7 | COR-L23 | 0.747 | 0.72 | 0.501 | 0.553 | 0.547 | 0.807 | 0.883 | 0.579 | 0.679 | 0.715 | 1.24 | 0.921 | 0.976 | 0.976 | 0.879 | 0.936 | 0.984 | 0.641 | 0.737 | 0.762
8 | COR-L 105 | 0.48 | 0.426 | 0.478 | 0.451 | 0.465 | 0.765 | 0.677 | 0.818 | 0.8 | 0.613 | 0.404 | 0.33 | 0.322 | 0.378 | 0.345 | 0.942 | 1.29 | 1.19 | 1.25 | 0.747
9 | Calu-6 |  |  |  |  |  |  |  |  |  |  | 0.929 | 1.03 | 0.987 | 0.963 | 1.14 | 1.02 | 0.886 | 0.729 | 0.91 | 0.954
10 | ChaGo-K-1 | 1.02 | 1.02 | 0.978 | 1.05 | 0.932 | 0.651 | 0.676 | 0.715 | 0.545 | 0.611 |  |  |  |  |  |  |  |  |  | 
11 | EBC-1 |  |  |  |  |  |  |  |  |  |  | 0.231 | 0.232 | 0.22 | 0.192 | 0.209 | 0.954 | 0.89 | 0.783 | 0.929 | 1.06
12 | EKVX | 0.291 | 0.359 | 0.355 | 0.372 | 0.295 | 0.706 | 0.661 | 0.698 | 0.63 | 0.648 | 0.202 | 0.186 | 0.227 | 0.204 | 0.19 | 0.971 | 1.04 | 0.922 | 0.996 | 0.937
13 | EMC-BAC-2 | 1.08 | 0.901 | 0.996 |  | 0.88 | 0.416 | 0.42 | 0.385 | 0.367 | 0.419 | 0.923 | 0.884 | 0.812 | 0.841 | 0.887 | 0.873 | 0.813 | 0.75 | 0.804 | 0.811
14 | EPLC-272H | 0.318 | 0.277 | 0.285 | 0.322 | 0.314 | 0.292 | 0.277 | 0.26 | 0.283 | 0.272 | 0.982 | 0.825 | 0.898 | 0.746 | 0.865 | 1.31 | 1.07 | 0.846 | 1.25 | 1.25
15 | H3255 | 0.715 | 0.759 | 0.615 | 0.626 | 0.674 | 0.714 | 0.538 | 0.598 | 0.585 | 0.6 | 0.257 | 0.256 | 0.228 | 0.245 | 0.219 | 0.964 | 0.995 | 0.985 | 0.991 | 0.934
16 | HARA | 0.902 | 0.895 | 0.642 | 0.989 | 0.602 | 0.502 | 0.494 | 0.311 | 0.368 | 0.423 | 0.747 | 0.839 | 0.684 | 0.77 | 0.706 | 0.971 | 0.939 | 0.709 | 0.748 | 0.648
17 | HCC-15 | 0.372 | 0.431 | 0.371 | 0.371 | 0.365 | 0.792 | 0.806 | 0.631 | 0.621 | 0.632 | 0.93 | 0.984 | 0.944 | 0.833 | 0.846 | 0.957 | 0.932 | 0.678 | 0.787 | 0.772
18 | HCC-44 | 1.02 | 1.03 | 0.884 | 0.899 | 1.08 | 0.58 | 0.589 | 0.553 | 0.496 | 0.502 | 1.06 | 1.06 | 0.919 | 0.924 | 0.879 | 0.683 | 0.727 | 0.56 | 0.683 | 0.615
19 | HCC-78 | 0.833 | 0.952 | 0.545 | 0.708 | 0.861 | 0.389 | 0.325 | 0.331 | 0.34 | 0.399 | 0.724 | 0.7 | 0.591 | 0.637 | 0.668 | 0.524 | 0.461 | 0.44 | 0.374 | 0.392
